Test results reported in patent US20230049350A1, “COMPOUNDS FOR TREATING BRAIN CANCER” (Purdue Pharmaceutical Products L.P., priority 2014, published 2023).
Entries after “also recorded” stand apart in the source; their conditions may differ.

Assays:
GBM12 cells = test: Intracerebral luciferase-transfected GBM12 murine brain tumour model; format: in vivo, athymic mice; details: for median survival: IV weekly day +4, +11, +18, EDO-S101 60 mg/kg, bendamustine 50 mg/kg, controls 52 days
Procedure: Therapeutic activity of EDO-S101 was determined in murine brain tumour models against GBM, based on tumour growth as determined by bioluminescence imaging and survival analysis as determined by Kaplan-Meier analysis.
Murine brain tumour models were created by intracerebral injection of 3×10^5 luciferase-transfected GBM12 cells in athymic mice under aesthesia using a stereotactic platform. GBM12 is a MGMT negative tumour cell line. Eight-week-old athymic mice underwent minimum 7 \-day acclimation/quarantine prior to surgery. Surgery was performed in a laminar flow hood under sterile conditions. Tylenol 300 mg/kg PO was given for analgesia 24 hours before the surgery continuing 48 hours postoperatively. Aesthesia was achieved by inhalation of 1-2% isoflurane. After the mouse became well anesthetized, it was placed in the Kopf stereotactic instrument. A small amount of BNP antibiotic cream (a mixture of Bacitracin, Neomycin and Polymyxin) was smeared on its eyes to prevent infection and corneal damage during surgery. A strip of soft fabric was placed over the mouse’s body and tail to prevent excessive heat loss during surgery. The scalp area was cleaned with a 2% solution of Betadine and dried with cotton tipped applicator. A midline sagittal incision was made in the scalp.
A small burr hole was drilled in the left skull with a surgical drill (Kopf) or a Dremel drill according to the coordinates (AP: 0.5 mm, LM: 2.5 mm) as determined by reference to the mouse brain atlas by Franklin and Paxinos. […] The mice were monitored post-operatively at least twice a day for 5 days or until recovery is complete. […]
After intracerebral injection of the GBM cells, all the mice were subjected to bioluminescence imaging (BLI) twice a week starting at day-4 post-intracerebral injection to monitor the real-time in vivo tumour growth. […] Peak luminescent signals were recorded 10 minutes after luciferin injection. Regions of interest encompassing the intracranial area of signal were defined using Living Image software (Xenogen, Alameda, CA), and the total photons/s/steradian /cm2 was recorded. […]

[1] = tested on: MB-468 breast cancer cells; test: Murine model for metastatic breast cancer of the brain, intracerebral MB-468; format: in vivo, mice; details: MB-468 intracerebral; for median survival: single iv dose day +4, EDO-S101 60 mg/kg, bendamustine 50 mg/kg, controls 55 days
Procedure: (§1) The procedure of Example 3 was repeated, except the murine models were created with 1×10^5 luciferase-transfected MB-468 breast cancer cells to create a […]. EDO-S101 (60 mg/kg body weight), bendamustine (50 mg/kg body weight) and control was administered intravenously via a tail vein to separate groups of the test mice in a single dose on day +4 post intracerebral implantation of the MB-468 breast cancer cells. […] EDO-S101 therefore appears to be a particularly promising treatment for metastatic brain cancer.

U87 = test: s.c. xenograft model of GBM, U87, time to progression; format: in vivo, mice; details: for time to progression of the tumours: U87G xenograft
Procedure: Next, adopting the procedure of Example 3, s.c. xenograft models of GBMs in mice were prepared using the GBM cell lines U251 and U87.
The U251 mice prepared as above were subjected either subjected to radiotherapy (2 Gy for 5 consecutive days), treatment with EDO-S101 (60 mg/kg intravenously at days 1, 8 and 15 of the treatment cycle) or control only. Before any irradiation mice were anesthetized with a mixture of ketamine (25 mg/ml)/xylazine (5 mg/ml). Anesthetized tumor-bearing mice received a focal irradiation at the dose of 2 Gy for 5 consecutive days. Irradiation was delivered using an X-ray linear accelerator at a dose rate of 200 cGy/min at room temperature. All mice were shielded with a specially designed lead apparatus to allow irradiation to the right hind limb. Mice were kept under these conditions until all irradiation finished.
The same sequence of experiments was followed, but this time with the s.c. xenograft models of GBM in mice prepared using the GBM cell line U87. In a first experiment, the U87 mice prepared as above were subjected either subjected to radiotherapy (2 Gy for 5 consecutive days), treatment with EDO-S101 (60 mg/kg intravenously at days 1, 8 and 15 of the treatment cycle) or control only. A study was made of the progression of the GBM.

OCI-LY10B lymphoma cells = test: Murine model for primary CNS lymphoma, intracerebral OCI-LY10B; format: in vivo, mice; details: for tumour growth: iv days +4, +11, +18; for median survival: iv days +4, +11, +18, EDO-S101 60 mg/kg, bendamustine 50 mg/kg, controls 48 days
Procedure: as §1, with “OCI-LY10B lymphoma” for “MB-468 breast cancer”, “mice” for “mice in a single dose”, “days +4, +11 and +18” for “day +4”, “a” for “a particularly”, “primary CNS lymphoma.” for “metastatic brain cancer.”

[2] = drug in combination with radiotherapy 2 Gy x 5 days, EDO-S101 60 mg/kg iv days 1, 8, 15, temozolomide 16 mg/kg po x 5 days

| SMILES | tumour growth (bioluminescence imaging) (GBM12 cells; IV 60 mg/kg day +4, +11, +18) | median survival (GBM12 cells) | tumour growth ([1]; single iv dose 60 mg/kg day +4) | median survival [1] | time to progression of the tumours (U87; drug alone, 60 mg/kg iv days 1, 8, 15, control approximately 15 days) | time to progression of the tumours (U87; [2]) | time to progression versus radiotherapy, or versus radiotherapy and temozolomide (U87; U87 s.c. xenograft, drug alone, FIG. 13, FIG. 14) | time to progression versus EDO-S101 alone and versus radiotherapy and temozolomide (U87; U87 s.c. xenograft, drug plus radiotherapy, FIG. 14) | tumour growth (OCI-LY10B lymphoma cells) | median survival (OCI-LY10B lymphoma cells) |
| --- | --- | --- | --- | --- | --- | --- | --- | --- | --- | --- |
| Cn1c(CCCCCCC(=O)NO)nc2cc(N(CCCl)CCCl)ccc21 [EDO-S101] | suppression of tumour growth | 66 days | suppression of tumour growth | 71 days | 40 days | over 50 days | considerably longer; also recorded: greater than that achieved with the combined radiotherapy and temozolomide treatment | significantly longer | significantly suppressed tumour growth | 62 days |
| Cn1nnc2c(C(N)=O)ncn2c1=O [temozolomide] | – | – | – | – | – | 35 days | – | – | – | – |
| Cn1c(CCCC(=O)O)nc2cc(N(CCCl)CCCl)ccc21 [bendamustine] | – | 58 days | – | 62 days | – | – | – | – | significantly suppressed tumour growth | 54 days |
